BindingDB's records for PubMed 35239336 (Pharmaron Beijing Co., Ltd., 2022)

Test: Inhibition of MK-499 binding to hERG

SMILES	IC50 [µM]
O=C(Nc1ccc(F)cc1)C1(c2ccc(-c3ccc(C4CC4)nc3)cc2)COC1	13.5
CC(C)(O)c1cc(C(F)(F)F)ncc1-c1ccc(C2(C(=O)Nc3ccc(F)cc3)COC2)cc1	21.3
Cc1cc(C2CC2)ncc1-c1ccc(C2(C(=O)Nc3ccc(F)cc3)COC2)cc1	15.9
Cc1cc(C(F)(F)F)ncc1-c1ccc(C2(C(=O)Nc3ccc(F)cc3)COC2)cc1	2.23
O=C(Nc1ccc(F)cc1)C1(c2ccc(-c3cnc(C(F)(F)F)cc3CO)cc2)CC(F)(F)C1	6.1
